PubChem BioAssay (NCI)
Values joined by “and” are separate entries in the source; they are usually repeats but may differ in a detail not shown here. Equal entries are not always repeated.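 Briefly, cells in 96-well plates were exposed to five compound concentrations for 48 h, and endpoints were estimated by linear interpolation. The concentration for 50% growth inhibition is given as GI50. TGI: total growth inhibition.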

Legend:
Assay in all cases: DTP human tumour cell line panel, 48 h
HCC-2998 colon = system: HCC-2998 colon
OVCAR-4 ovarian = system: OVCAR-4 ovarian
SR leukemia = system: SR leukemia
HT29 colon = system: HT29 colon
786-0 renal = system: 786-0 renal
HCT-15 colon = system: HCT-15 colon
CAKI-1 renal = system: CAKI-1 renal
SF-539 CNS = system: SF-539 CNS
SK-OV-3 ovarian = system: SK-OV-3 ovarian
A498 renal = system: A498 renal

| SMILES | TGI (HCC-2998 colon) | TGI (OVCAR-4 ovarian) | TGI (SR leukemia) [µM] | TGI (HT29 colon) [µM] | TGI (786-0 renal) [µM] | TGI (HCT-15 colon) [µM] | TGI (CAKI-1 renal) | TGI (SF-539 CNS) | TGI (SK-OV-3 ovarian) | GI50 (CAKI-1 renal) | GI50 (HCC-2998 colon) [µM] | GI50 (SF-539 CNS) [µM] | GI50 (OVCAR-4 ovarian) [µM] | GI50 (SK-OV-3 ovarian) | TGI (A498 renal) [µM] | GI50 (HT29 colon) [µM] | GI50 (786-0 renal) [µM] | GI50 (HCT-15 colon) [µM] | GI50 (A498 renal) [µM] |
| --- | --- | --- | --- | --- | --- | --- | --- | --- | --- | --- | --- | --- | --- | --- | --- | --- | --- | --- | --- |
| CCOC(=O)c1c(NCc2ccccc2)n(-c2ccccc2)c(=S)n(-c2ccccc2)c1=O | > 100 µM | > 100 µM | > 100 | > 100 | > 100 | > 100 |  |  |  |  |  |  |  |  |  |  |  |  |  |
| Cc1nn(C(=O)c2ccncc2)c2c1C(c1cccc([N+](=O)[O-])c1)SC(N)=N2 (configuration not stated) | > 10 µM | > 10 µM | > 10 | > 10 | > 10 | > 10 | > 10 µM | > 10 µM | > 10 µM |  |  |  |  |  |  |  |  |  |  |
| COc1cccc2c1[C@H]1CO[C@H]3C4C[C@H](C(=O)O)C([C@@H](C2)N13)N4C (some centres not stated) | 8.08 µM and 1.2 µM | 8.21 µM and 10.5 µM | 8.55 |  | 4.67 | 6.12 | 6.06 µM and 28.8 µM | 2.62 µM and 2.04 µM | 7.84 µM and 1.75 µM | 2.17 µM and 2.9 µM | 0.593 | 0.684 | 0.99 | 6.06 µM and 0.803 µM |  |  |  |  |  |
| CCN(CC)CCCC(C)Nc1c(Sc2cnc3cc(Cl)ccc3c2NC(C)CCCN(CC)CC)cnc2cc(Cl)ccc12 (configuration not stated) | 1.14 µM | 3.22 µM |  | 3.65 | 3.01 | 3.16 | 2.86 µM |  | 3.08 µM |  |  |  |  |  | 3.31 |  |  |  |  |
| N.N.N.N.N.O=S(=O)([O-])C(F)(F)F.O=S(=O)([O-])C(F)(F)F.[Os+8] | 20.2 µM |  |  | 55.3 | 16.4 | 56.4 | 30.6 µM | 16.2 µM | 60.2 µM | 6.61 µM | 7.02 | 4.26 |  | 20.6 µM | 29.5 | 15.4 | 4.2 | 17 | 12 |
| CCCCc1c2c(nc3c1CCc1cc4cc5c(nc4nc1-3)-c1nc3c(c(CCCC)c1CC5)CCC/C3=C\c1ccccc1)/C(=C/c1ccccc1)CCC2 | > 100 µM |  | > 100 | > 100 | > 100 | > 100 |  | > 100 µM | > 100 µM |  |  |  |  |  |  |  |  |  |  |
| N/C(=N\c1nc2ccccc2s1)NC(=NC1CCCCC1)NC1CCCCC1 | 2.98 µM | 3.29 µM |  | 3.66 | 3.23 | 2.93 | 2.89 µM | 3.12 µM | 3.53 µM | 1.53 µM | 1.58 | 1.66 | 1.63 | 1.84 µM | 3.11 | 1.63 | 1.65 | 1.47 | 1.71 |
| Nc1ccc(C(=O)NN2C(=O)C(Cl)C2c2cccc(O)c2)cc1 (configuration not stated) | 29.8 µM | 34 µM |  | 35.2 | 29.5 | 25.3 | 41.9 µM | 31.6 µM | 34.3 µM |  |  |  |  |  | 58.1 |  |  |  |  |
| Cc1cc(C)nc(NS(=O)(=O)c2ccc(NC(=O)c3cccn4c(=O)c5ccccc5nc34)cc2)n1 | > 100 µM | 68.3 µM | > 100 | > 100 | > 100 | > 100 |  | > 100 µM |  |  |  |  |  |  |  |  |  |  |  |
| CN1CCN(c2cc3nc4ccccc4n(-c4ccc(Cl)cc4)c-3cc2=N)CC1 | 54.9 µM |  |  | > 100 | > 100 | 81.3 | 82 µM | 73.7 µM | > 100 µM | 24.6 µM | 23.1 | 26.6 |  | > 100 µM | > 100 | > 100 | 31.4 | 23.4 | > 100 |
| COc1ccc2c(c1)C(=O)c1c-2c(N2CCNCC2)nc2ccccc12 |  | 27.1 µM |  | 3.34 | 13.3 | 11.8 | 30.3 µM | 12.7 µM | 19.2 µM | 11.5 µM |  | 3.8 | 9.93 | 6 µM | 21.1 | 1.49 | 3.17 | 3.44 | 7.4 |
| Cc1ccc(NC(=O)CC2SC(N)=NC2=O)cc1C (configuration not stated) | > 100 µM | > 100 µM | > 100 | > 100 | > 100 | > 100 | > 100 µM | > 100 µM | > 100 µM |  |  |  |  |  |  |  |  |  |  |
| CC(=O)NNc1nc(C)c(C(=O)/C=C/c2ccc(/C=C/C(=O)c3sc(NNC(C)=O)nc3C)cc2)s1 | > 100 µM | > 100 µM | > 100 | > 100 | > 100 | > 100 | > 100 µM | > 100 µM | > 100 µM |  |  |  |  |  |  |  |  |  |  |
| Nc1ncnc2c1nnn2C1C=C(CO)C(O)C1O (configuration not stated) | > 100 µM | > 100 µM |  | > 100 | > 100 | > 100 | > 100 µM | > 100 µM | > 100 µM |  |  |  |  |  | > 100 |  |  |  |  |
